Marks after values point to notes of the source that are not given here.
How the values were obtained:
ERα = molecular target: T1, ERα (Homo sapiens, UniProt P03372); assay: Fluorescence polarization competition assay: antagonistic potency and relative binding affinity; details: for Ki: calculated antagonistic (inhibitory) constant, read-out: Ka ERα; for IC50: concentration that antagonizes 50% of ERα signaling activity, read-out: ERα (IC50 nM); for logRBA ERα: log of % relative binding affinity, estradiol = 100%; for ERα potency, fold higher than Ral: ratio of IC50 values
T1 sequence (P03372 1-595): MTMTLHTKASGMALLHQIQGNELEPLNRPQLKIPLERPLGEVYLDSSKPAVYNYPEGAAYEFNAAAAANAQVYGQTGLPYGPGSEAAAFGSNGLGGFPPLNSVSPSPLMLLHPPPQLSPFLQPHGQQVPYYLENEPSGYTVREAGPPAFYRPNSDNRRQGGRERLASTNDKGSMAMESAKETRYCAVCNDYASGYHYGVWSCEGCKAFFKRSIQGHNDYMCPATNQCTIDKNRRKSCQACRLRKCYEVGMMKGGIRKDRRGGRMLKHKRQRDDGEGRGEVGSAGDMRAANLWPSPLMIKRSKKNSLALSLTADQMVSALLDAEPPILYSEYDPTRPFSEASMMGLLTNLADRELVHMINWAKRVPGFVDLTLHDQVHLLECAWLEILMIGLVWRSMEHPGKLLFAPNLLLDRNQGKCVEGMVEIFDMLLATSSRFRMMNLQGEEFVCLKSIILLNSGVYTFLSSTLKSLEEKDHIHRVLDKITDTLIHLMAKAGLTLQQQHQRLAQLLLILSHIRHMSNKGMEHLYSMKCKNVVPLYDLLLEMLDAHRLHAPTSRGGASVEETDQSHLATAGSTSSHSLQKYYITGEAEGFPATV

[1] = test system: Ishikawa endometrial adenocarcinoma cells; assay: Antiproliferative assay; type: cell-based; details: Homo sapiens, growth inhibition
[2] = test system: progesterone receptor (PR); assay: ERα functional antagonism cell assay (PR as biomarker) in MCF-7; type: cell-based; details: Homo sapiens, MCF7; progesterone receptor as biomarker for ERα antagonism in MCF-7
[3] = test system: p53 promoter activity (p21 promoter); assay: qChIP of ERα-p53 interaction on the p21 promoter in MCF-7; type: cell-based, human
[4] = test system: MNU-induced breast cancer; assay: In vivo anticancer screening, MNU-induced mammary tumorigenesis; parameters: species or system female Wistar rats
[5] = Plasma protein binding determination; type: in vitro ADME, rat; details: rat plasma, 37 °C, read-out: Rat PPB (%free)
Description: Rats were housed at 3 per cage and
The breast cancer was induced after the MNU (Sigma Aldrich CAS No. 684-93-5) administration. An aqueous solution at a concentration of 10 mg/ml was made by wetting the NMU powder with 3% acetic acid and then dissolving it in 0.9% NaCl solution; a fresh solution was prepared for each injection. Rats were given intraperitoneal (i.p.) 50 mg/kg of MNU on the 50th day of age. Animals were divided into different groups with six animals in each group. Group I (intact control) received 0.9% NaCl solution.
Groups II-IV and V-VII were introduced with MNU. Two weeks after MNU treatment, animals were treated orally with synthesized compounds and control substances (5 and 50 mg/kg, for groups II-IV and V-VII, respectively) by gavage once per day for six weeks. Animals in the intact control group and untreated MNU group were given vehicle (Tween 80) according to the experimental protocol. […]
Upon finishing the treatment with synthesized compounds, animals were sacrificed, and plasma, serum, and liver samples were collected. […]
Rat plasma containing either 5 or 50 mg/kg bwt of the tested compounds was incubated at 37°C upper reservoir of the washed Centri-free YM-30 ultrafiltration units (Millipore, Bedford, MA) and then centrifuged for 20 min at 2,000 g. Aliquots of the ultrafiltrates and unfiltered incubation mixtures were analyzed for the total protein concentration by the bicinchoninic acid assay for protein concentration (BCA assay; Pierce, Rockford, IL).

[6] = rat, in vivo
[7] = dose 50 mg/kg (compounds per os after MNU; MNU alone i.p.)

## CC(=O)c1cc(C(=O)O[C@@H]2/C=C/C(=O)O[C@@H](O)CCC/C=C/[C@@H]3C[C@H](O)C[C@H]32)ccc1OCCN1CCCC(O)C1=O (stereo partly drawn) [Compound 3DPQ-12, (1R,2E,6R,10E,11aS,13S,14aR)-6,13-dihydroxy-4-oxo-4,6,7,8,9,11a,12,13,14,14a-decahydro-1H-cyclopenta[f][1]oxacyclotridecin-1-yl 3-acetyl-4-(2-(3-hydroxy-2-oxopiperidin-1-yl)ethoxy)benzoate]
ERα
  Ki: 0.09 nM
  IC50: 0.4 ± 0.43 nM
  logRBA ERα: 2.35 ^†,‡,§
  ERα potency, fold higher than Ral: 1.85 fold
[1]
  IC50: 0.77 ± 0.43 nM
[2]
  IC50: > 100 nM
[3]; higher concentration (1 nM)
  p53 promoter activity, fold higher than the one provoked by Ral: 0.55 fold
[3]; lower concentration (0.1 nM)
  p53 promoter activity, fold higher than the one provoked by Ral: 0.65 fold
[4]; dose 5 mg/kg per os after MNU
  Tumor Burden (week): 2.24 ± 0.54 *^,†,‡,‖ week
  Tumor Latency (week): 12 *^,†,‡ week
  Tumor Volume (mm^3): 0.67 ± 0.22 *^,†,‡,‖ mm^3
[4]; [7]
  Tumor Burden (week): 0.94 ± 0.35 *^,†,§,┴ week
  Tumor Latency (week): 15 *^,†,§ week
  Tumor Volume (mm^3): 0.34 ± 0.11 *^,†,§,┴ mm^3
[5]
  fraction unbound at 5 mg/kg bwt: 0.0124
  fraction unbound at 50 mg/kg bwt: 0.0131
[6]
  WL after MFD (day 1, mg): 305.06 ± 0.94 mg

## CNCCOc1ccc(C(=O)O[C@@H]2/C=C/C(=O)O[C@@H](O)CCC/C=C/[C@@H]3C[C@H](O)C[C@H]32)cc1C(C)=O [Compound 3DPQ-1, (1R,2E,6R,10E,11aS,13S,14aR)-6,13-dihydroxy-4-oxo-4,6,7,8,9,11a,12,13,14,14a-decahydro-1H-cyclopenta[f][1]oxacyclotridecin-1-yl 3-acetyl-4-(2-(methylamino)ethoxy)benzoate]
ERα
  Ki: 0.13 nM
  IC50: 0.57 ± 0.54 nM
  logRBA ERα: 2.19 ^‡,§
  ERα potency, fold higher than Ral: 1.30 fold
[1]
  IC50: 0.94 ± 0.36 nM
[2]
  IC50: > 100 nM
[3]; higher concentration (1 nM)
  p53 promoter activity, fold higher than the one provoked by Ral: 0.66 fold
[3]; lower concentration (0.1 nM)
  p53 promoter activity, fold higher than the one provoked by Ral: 0.733 fold
[4]; dose 5 mg/kg per os after MNU
  Tumor Burden (week): 3.38 ± 0.31 ^i,*^,†,‖ week
  Tumor Latency (week): 9 * week
  Tumor Volume (mm^3): 1.09 ± 0.23 *^,†,‡,‖ mm^3
[4]; [7]
  Tumor Burden (week): 2.04 ± 0.35 *^,†,§,┴ week
  Tumor Latency (week): 12 *^,† week
  Tumor Volume (mm^3): 0.68 ± 0.35 *^,†,§,┴ mm^3
[5]
  fraction unbound at 5 mg/kg bwt: 0.0133
  fraction unbound at 50 mg/kg bwt: 0.0122
[6]
  WL after MFD (day 1, mg): 310.34 ± 0.34 ^i mg

## CC(=O)c1cc(C(=O)O[C@@H]2/C=C/C(=O)O[C@@H](O)CCC/C=C/[C@@H]3C[C@H](O)C[C@H]32)ccc1OCCN(C)C [Compound 3DPQ-2, (1R,2E,6R,10E,11aS,13S,14aR)-6,13-dihydroxy-4-oxo-4,6,7,8,9,11a,12,13,14,14a-decahydro-1H-cyclopenta[f][1]oxacyclotridecin-1-yl 3-acetyl-4-(2-(dimethylamino)ethoxy)benzoate]
ERα
  Ki: 0.12 nM
  IC50: 0.54 ± 0.31 nM
  logRBA ERα: 2.22 ^†,‡,§
  ERα potency, fold higher than Ral: 1.37 fold
[1]
  IC50: 0.99 ± 0.35 nM
[2]
  IC50: > 100 nM
[3]; higher concentration (1 nM)
  p53 promoter activity, fold higher than the one provoked by Ral: 0.66 fold
[3]; lower concentration (0.1 nM)
  p53 promoter activity, fold higher than the one provoked by Ral: 0.733 fold
[4]; dose 5 mg/kg per os after MNU
  Tumor Burden (week): 3.34 ± 0.57 *^,†,‖ week
  Tumor Latency (week): 9 * week
  Tumor Volume (mm^3): 0.96 ± 0.41 *^,†,‡,‖ mm^3
[4]; [7]
  Tumor Burden (week): 1.98 ± 0.45 *^,†,§,┴ week
  Tumor Latency (week): 12 *^,† week
  Tumor Volume (mm^3): 0.69 ± 0.23 *^,†,§,┴ mm^3
[5]
  fraction unbound at 5 mg/kg bwt: 0.0115
  fraction unbound at 50 mg/kg bwt: 0.0124
[6]
  WL after MFD (day 1, mg): 305.03 ± 0.66 mg

## CC(=O)c1cc(C(=O)O[C@@H]2/C=C/C(=O)O[C@@H](O)CCC/C=C/[C@@H]3C[C@H](O)C[C@H]32)ccc1OCCN1CC(C(=O)O)=CCC1=O [Compound 3DPQ-9, 1-(2-(2-acetyl-4-((((1R,2E,6R,10E,11aS,13S,14aR)-6,13-dihydroxy-4-oxo-4,6,7,8,9,11a,12,13,14,14a-decahydro-1H-cyclopenta[f][1]oxacyclotridecin-1-yl)oxy)carbonyl)phenoxy)ethyl)-6-oxo-1,2,5,6-tetrahydropyridine-3-carboxylic acid]
ERα
  Ki: 0.1 nM
  IC50: 0.45 ± 0.14 nM
  logRBA ERα: 2.30 ^†,‡,§
  ERα potency, fold higher than Ral: 1.64 fold
[1]
  IC50: 0.89 ± 0.24 nM
[2]
  IC50: > 100 nM
[3]; higher concentration (1 nM)
  p53 promoter activity, fold higher than the one provoked by Ral: 0.66 fold
[3]; lower concentration (0.1 nM)
  p53 promoter activity, fold higher than the one provoked by Ral: 0.68 fold
[4]; dose 5 mg/kg per os after MNU
  Tumor Burden (week): 2.28 ± 0.47 *^,†,‡,‖ week
  Tumor Latency (week): 12 *^,†,‡ week
  Tumor Volume (mm^3): 0.77 ± 0.32 *^,†,‡,‖ mm^3
[4]; [7]
  Tumor Burden (week): 1.14 ± 0.65 *^,†,§,┴ week
  Tumor Latency (week): 15 *^,†,§ week
  Tumor Volume (mm^3): 0.40 ± 0.43 *^,†,§,┴ mm^3
[5]
  fraction unbound at 5 mg/kg bwt: 0.0128
  fraction unbound at 50 mg/kg bwt: 0.0131
[6]
  WL after MFD (day 1, mg): 315.54 ± 0.65 mg

## CC(=O)c1cc(C(=O)OC2/C=C/C(=O)O[C@@H](O)CCC/C=C/[C@@H]3C[C@H](O)C[C@@H]23)ccc1OCCN1CCC=C(C(=O)O)C1 (stereo partly drawn) [Compound 3DPQ-3, 1-(2-(2-acetyl-4-((((2E,6R,10E,11aS,13S,14aR)-6,13-dihydroxy-4-oxo-4,6,7,8,9,11a,12,13,14,14a-decahydro-1H-cyclopenta[f][1]oxacyclotridecin-1-yl)oxy)carbonyl)phenoxy)ethyl)-1,2,5,6-tetrahydropyridine-3-carboxylic acid]
ERα
  Ki: 0.1 nM
  IC50: 0.44 ± 0.31 nM
  logRBA ERα: 2.31 ^†,‡,§
  ERα potency, fold higher than Ral: 1.68 fold
[1]
  IC50: 0.84 ± 0.74 nM
[2]
  IC50: > 100 nM
[3]; higher concentration (1 nM)
  p53 promoter activity, fold higher than the one provoked by Ral: 0.61 fold
[3]; lower concentration (0.1 nM)
  p53 promoter activity, fold higher than the one provoked by Ral: 0.68 fold
[4]; dose 5 mg/kg per os after MNU
  Tumor Burden (week): 2.18 ± 0.69 *^,†,‡,‖ week
  Tumor Latency (week): 12 *^,†,‡ week
  Tumor Volume (mm^3): 0.78 ± 0.43 *^,†,‡,‖ mm^3
[4]; [7]
  Tumor Burden (week): 1.16 ± 0.64 *^,†,§,┴ week
  Tumor Latency (week): 15 *^,†,§ week
  Tumor Volume (mm^3): 0.66 ± 0.21 *^,†,§,┴ mm^3
[5]
  fraction unbound at 5 mg/kg bwt: 0.0134
  fraction unbound at 50 mg/kg bwt: 0.0147
[6]
  WL after MFD (day 1, mg): 320,45 ± 0.62 mg
